For test [1], the system named is proteinase inhibitor I and II. Briefly: Proteinase inhibitor I and II induction in tomato seedlings, radial immunodiffusion assay, 24 h (Example 1). To be noted: 1.5 mM in water, FIG. 1. It is filed as in vivo. How it is done:
Seven test samples or groups were prepared using two week old tomato seedlings. The descriptions of the treatments given to each test sample can be found in Table 2 below. Liquid formulations were applied by spraying three squirts to the foliage with a spray bottle. Eight plants per treatment (four pots per treatment, each pot containing two seedlings) were sprayed with each test formulation. Plants from each treatment were isolated in enclosed Plexiglas boxes and placed overnight in a light- and temperature-controlled growth chamber (i.e., plants given the same treatment were isolated together in a single Plexiglas box; plants given different treatments were in different boxes). Twenty-four hours after treatment, each plant was assayed for proteinase inhibitor I and II production by a radial immunodiffusion assay using anti-inhibitor antibodies (Ryan, C. A., Analytical Biochemistry 19 (1967), pp. 424-440, the contents of which are incorporated by reference in their entirety). [table] The results for each of the test samples are shown in FIG. 1, a graph in which proteinase inhibitor levels (PI-I and PI-II) are reported in micrograms of proteinase inhibitor per milliliter of leaf extract for each test sample. The two plants per pot were pooled to give one data point per pot (i.e., four data points total were collected per treatment).

The subject of another test is trypsin inhibitor. Nature of the test: Activation of trypsin inhibitor in roses (Example 6). The format is in vivo, white miniature roses (Parade Rose). As to conditions: 48 hours, FIG. 6; for proteinase (trypsin) inhibitor activity: 5.0 mM foliage spray plus root drench. As to the method: Potted plants of white miniature roses, marketed as Parade Rose® received one of three treatments. Roses were treated by (1) spraying the foliage of each plant to the point of drip to ensure maximum coverage; and (2) pouring 50 ml of the formulation into the soil within the root zone. There were three plants per treatment. 48 hours after treatment, all leaves from the entire plant were collected and pooled for analysis of trypsin inhibitor activity. Leaf extracts were prepared by adding 25 ml of 0.4 M sodium phosphate, pH 9, extraction buffer and 3 ml of 10% Triton® X-100 and grinding in a blender. The extract was filtered through four layers of cheesecloth. One milliliter of extract was spun at 2000×g for 15 minutes at 4-degrees and the resulting supernatant was frozen until the assay could be completed.
For the trypsin assay, rose extracts were thawed and replicates of 1, 2, and 3 μl for each extract were added to trypsin assay solution containing p-toluene-sulfonyl-L-arginine methyl ester (TAME) as the trypsin substrate. The level of trypsin activity was measured and reflects trypsin inhibition by trypsin inhibitor. Data is shown in FIG. 6, a graph of the results, and is presented as the mean and SEM of % remaining trypsin activity per gram fresh weight for 1, 2, and 3 μl. In FIG. 6, lower values represent greater trypsin inhibitor activity.

For the next test, the system named is Polyphenol Oxidase. Nature of the test: Activation of polyphenol oxidase in field-grown roses (Example 4). It is filed as in vivo, 'Julia Child' roses. To be noted: FIG. 5; for PPO activity: 5 mM + 0.5% canola oil + 0.125% Triton X-100, 44 hours, caffeic acid substrate. How it is done: Field grown 1-year old ‘Julia Child’ roses were treated with foliar sprays of two different formulations. Roses were treated by spraying the foliage of each plant to the point of drip to ensure maximum coverage. There were three plants per treatment. 44 hours after application, 3 young leaves from each plant (each leaf from a different stem and all leaves at the same stage of development) were collected and pooled for analysis of PPO activity as in Example 2 above, except that 0.5 ml of ice cold extraction buffer were used, followed by addition of 160 μl 10% Triton® X-100. 50 μl of the supernatant was added to 1 ml of PPO assay buffer. The formulations are set forth in Table 5 below, and the data is shown FIG. 5, a graph of PPO activity for the two formulations and an untreated control. Data are reported as mean and SEM for each treatment.

The test system of another test is powdery mildew. Briefly: Treatment and control of powdery mildew in roses (Example 10). It is filed as in vivo, powdery mildew on 'Mr. Lincoln' roses. To be noted: beyond disease levels measured prior to first treatment. As to the method:
Outdoor potted roses of the cultivar ‘Mr. Lincoln’ were treated with 9 treatment samples (8 formulations and one untreated control). For each treatment sample, three plots having three plants each were treated for a total of 9 plants per treatment. Roses were treated every 2 weeks by spraying the foliage of each plant to the point of drip to ensure maximum coverage. Plants were initially evaluated for powdery mildew incidence and severity prior to the first treatment of the trial. […] Subsequent evaluations followed every 10 days for 2 months. Evaluations consisted of evaluating 60 individual leaves per plot (20 leaves were collected from 3 rose plants per plot) for disease incidence and severity. Disease incidence was determined by counting the number of leaves infected. Disease severity was determined as the percentage of leaf surface infected with the disease. Analysis of Variance was calculated for both severity and incidence. Table 11 below describes the mean number of leaves found to be infected with powdery mildew for each treatment group on respective evaluation days. […] FIG. 15 is a graph illustrating the percentage of leaves infected in each treatment group. In FIG. 15, the individual bars within each treatment represent successive evaluations on days 1, 11, 21, 31, 41, 52, and 62.

Another test deals with aphids. Nature of the test: Field study of aphid infestations in roses (Example 7). The format is in vivo, aphids on 'Mr. Lincoln' roses. As to conditions: for concentration at which more efficacious against aphids: 1.5 mM vs 5 mM; for incidence of aphids on roses: foliar spray every 10-13 days, height of aphid pressure, FIGS. 7 and 8. How it is done:
Potted roses of the cultivar ‘Mr. Lincoln’ were treated with 9 treatment samples (8 formulations and one untreated control). For each treatment sample, three plots having three plants each were treated, for a total of 9 plants per treatment. Roses were treated every 10-13 days by spraying the foliage of each plant to the point of drip to ensure maximum coverage. The plants were evaluated at approximately 10-day intervals for the number of aphids on each plant. Table 8 below includes the descriptions of the test formulations.
FIGS. 7 and 8 are two representations of the same data, taken at the height of aphid pressure. FIG. 7 is a histogram representing mean and SEM aphid counts on the roses with the various formulations. In FIG. 8, each data point represents the number of aphids on a single plant.

The subject of a further test is Polyphenol Oxidase (PPO). Nature of the test: Polyphenol oxidase (PPO) induction in tomato plants (Example 2). It is filed as in vivo. To be noted: tomato seedlings, 1.5 mM + 0.5% canola oil + 0.125% Triton X-100, 24 hours; FIG. 2. How it is done:
Three test samples were prepared using tomato seedlings. The descriptions of the treatments given to each test sample can be found in Table 3 below.
Liquid formulations were applied by spraying three squirts to the foliage with a spray bottle. Seedlings from each treatment were isolated in plastic boxes (i.e., as in Example 1, plants given the same treatment were isolated together). Polyphenol oxidase assays were carried out on the entire foliage of each plant 24 hours after application (Stout, M. J., Brovont, R. A., and Duffey, S. S., J. Chemical Ecology 24:6, pp. 946-963, the contents of which are incorporated by reference in their entirety).
The assay procedure was as follows. Tomato leaflets were weighed and ground in 1 ml of ice-cold extraction buffer (0.1M sodium phosphate buffer, pH 7, containing 3.5% polyvinylpolypyrolidine). Following grinding, 0.4 ml of 10% Triton® X-100 was added to the leaf homogenate, mixed and centrifuged for 15 minutes at 2000×g at 4-degrees. Fifteen microliters of the resulting supernatant was added to 1 ml of PPO Assay Buffer (2.92 mM caffeic acid in pH 7 sodium phosphate buffer) and the change in absorbance at A470 was recorded every minute for 10 minutes. Change in absorbance rate (OD A470/min/g protein) reflects the rate of formation of a compound produced by the activity of PPO. […]

The subject of a further test is damping off disease. Briefly: Observational decrease in disease in tomato seedlings (Example 8). It is filed as in vivo. To be noted: 1.5 mM MDHJ, 0.5% canola oil, 0.125% Triton X-100 foliar spray; 17th day after treatment. How it is done: FIG. 9 is a photograph of an untreated tomato seedling, illustrating the damping off disease on the leaves;
One group of tomato seedlings was treated with a formulation comprising 1.5 mM MDHJ, 0.5% canola oil, and 0.125% Triton® X-100 by spraying the foliage until the point of dripping. Another group of tomato seedlings was left untreated. Plants from each group were isolated in respective Plexiglas boxes. Photographs of the plants were taken on the 17th day after treatment. One plant in each treatment group had died.

A further test has as its system gene expression. To be noted: tobacco plants; cited from earlier work.
For test [2], the system named is cell suspension cultures of E. californica. To be noted: cited from earlier work.

Consider `CC/C=C\CC1C(=O)CCC1CC(=O)OC` (stereo not shown) [MJ, methyl jasmonate, reference compound], for which, in test [1], the “proteinase inhibitor level compared with wounding response” value is “much greater level than the plant's natural response to wounding”. Besides, the “proteinase (trypsin) inhibitor activity” value in the test on trypsin inhibitor is “enhanced proteinase inhibitor activity”. For the same compound, in the test on Polyphenol Oxidase, the PPO activity entry was “increased PPO activity”. Further, in the test on powdery mildew, the “progression of powdery mildew incidence” value was “similarly effective in slowing the progression of powdery mildew incidence”. Besides, in the test with aphids, the “concentration at which more efficacious against aphids” value is listed as “more efficacious at the higher concentration of 5 mM” and the “incidence of aphids on roses” value is “reduced aphid counts”.

Take `CCCCCC1C(=O)CCC1CC(=O)OC` (stereo not shown) [MDHJ, methyl dihydrojasmonate]: the “activation of PPO” value with Polyphenol Oxidase (PPO) was “activate PPO”. In addition, in the test on damping off disease, the “signs of disease in seedlings” value was “did not show signs of disease”. The “bioactivity relative to MJ” value in the test on gene expression is given as “only a small fraction of the bioactivity of MJ”. Besides, the “proteinase inhibitor level compared with wounding response” value in test [1] is “much greater level than the plant's natural response to wounding”. The “proteinase (trypsin) inhibitor activity” value in the test on trypsin inhibitor was “enhanced proteinase inhibitor activity”. In the test with trypsin inhibitor (5.0 mM), the “enhancement of proteinase inhibitor activity compared with MJ” value is listed as “to a greater degree than MJ”. Further, in test [2], the “concentration inducing benzo[c]phenanthridine alkaloid synthesis” value was 10 µM and the “concentration relative to MJ required for the same effect” value was “five times the concentration of MJ required to produce the same effect”. In the test with Polyphenol Oxidase, the PPO activity result was “increased PPO activity”. The “elicitation of plant defenses (PPO) compared with MJ” value in the test with Polyphenol Oxidase (field-grown roses, 5 mM, 44 hours) is recorded as “equal to or better than the levels seen after MJ application”. Also, the “progression of powdery mildew incidence” value in the test on powdery mildew was “similarly effective in slowing the progression of powdery mildew incidence”. For the same compound, in the test with aphids, the “concentration at which more efficacious against aphids” value is on record as “more efficacious at the lower concentration of 1.5 mM” and the “incidence of aphids on roses” value is “reduced aphid counts”.
